From patent EP4043466B1, “PRC2 INHIBITORS” (Mirati Therapeutics, Inc., priority 2018, dated 2019)

Legend:
[1] = target: purified human, His-tagged PRC2 complex (Homo sapiens, UniProt O75530+Q15910); assay: Hot Spot HMT assay: inhibition of PRC2 enzymatic activity (transfer of tritiated methyl from SAM to core histone, filter binding); format: biochemical; settings: Inhibition of PRC2-mediated enzymatic activity; 10 nM PRC2 complex, 0.05 mg/ml core histone H3, 1 uM 3H-SAM, 1 hr at 30°C
How it was run: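 Five-subunit complex (His-EZH2, Flag-EED, His-SUZ12, His-AEBP2, His-RbAp48) at 10 nM with 0.05 mg/ml core histone H3, pH 8 Tris buffer, 1% DMSO; 20 min compound pre-incubation at 30°C. Started with 1 uM [3H]-SAM, 1 hr at 30°C; tritiated H3 counted by scintillation. Compounds diluted from 1.0 µM top concentration.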

[2] = tested on: PRC2-mediated histone H3 methylation; assay: Tri-Methyl Histone H3 (Lys 27) Sandwich ELISA in Pfeiffer cells: inhibition of PRC2-mediated histone H3 methylation; format: cell-based, human; settings: Inhibition of EZH2-mediated histone H3 trimethylation, Pfeiffer cells (EZH2 A677G), 96 hours incubation
How it was run: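 Pfeiffer DLBCL cells (EZH2 A677G mutant) treated with 3-fold serial dilutions, 1µM to 0.15 nM final, for 96 hours at 37°C. Acid (0.4M HCl) histone extracts, neutralized, assayed by H3K27me3 sandwich ELISA with HRP/TMB read at 450 nm.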

Karpas 422 cells = assay: Karpas 422 cell viability, CTG (Cell Titre Glo) assay; format: cell-based, human; settings: Inhibition of proliferation of Karpas 422 cells (EZH2 Y641N), viability measured Day 4, Day 7 or Day 11, time point of the tabulated values not stated
How it was run: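 Karpas 422 cells (EZH2 Y641N, DLBCL) plated at 1000 cells/well in RPMI with 20% FBS, exposed to compound 10µM down to 1.5nM in 3-fold steps at 37 °C. Viability by CellTiter-Glo on Days 4, 7 and 11; Day 11 plates re-fed with fresh medium and compound on Day 7. IC50 per time point.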

purified human, His-tagged PRC2 complex, sequence (Q15910 whole entry): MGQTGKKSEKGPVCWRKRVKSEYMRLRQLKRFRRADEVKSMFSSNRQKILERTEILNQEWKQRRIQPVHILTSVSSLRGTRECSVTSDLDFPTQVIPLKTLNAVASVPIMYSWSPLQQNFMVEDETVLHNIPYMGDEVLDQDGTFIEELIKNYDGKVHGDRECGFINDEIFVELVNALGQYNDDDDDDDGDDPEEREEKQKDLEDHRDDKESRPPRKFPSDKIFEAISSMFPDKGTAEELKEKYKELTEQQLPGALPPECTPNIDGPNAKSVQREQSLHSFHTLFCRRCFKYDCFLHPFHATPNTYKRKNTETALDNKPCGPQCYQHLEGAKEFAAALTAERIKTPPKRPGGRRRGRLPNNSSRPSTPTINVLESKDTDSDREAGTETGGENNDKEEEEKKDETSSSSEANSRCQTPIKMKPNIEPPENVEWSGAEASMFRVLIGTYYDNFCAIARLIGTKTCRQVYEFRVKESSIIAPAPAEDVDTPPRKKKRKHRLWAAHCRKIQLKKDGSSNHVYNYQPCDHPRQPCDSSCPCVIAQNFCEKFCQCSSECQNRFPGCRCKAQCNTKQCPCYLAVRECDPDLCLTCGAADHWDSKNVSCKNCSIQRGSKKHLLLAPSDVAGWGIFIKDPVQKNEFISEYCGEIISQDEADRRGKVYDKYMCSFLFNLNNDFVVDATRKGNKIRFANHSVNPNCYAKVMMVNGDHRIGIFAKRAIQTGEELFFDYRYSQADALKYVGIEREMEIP
purified human, His-tagged PRC2 complex, sequence (O75530 whole entry): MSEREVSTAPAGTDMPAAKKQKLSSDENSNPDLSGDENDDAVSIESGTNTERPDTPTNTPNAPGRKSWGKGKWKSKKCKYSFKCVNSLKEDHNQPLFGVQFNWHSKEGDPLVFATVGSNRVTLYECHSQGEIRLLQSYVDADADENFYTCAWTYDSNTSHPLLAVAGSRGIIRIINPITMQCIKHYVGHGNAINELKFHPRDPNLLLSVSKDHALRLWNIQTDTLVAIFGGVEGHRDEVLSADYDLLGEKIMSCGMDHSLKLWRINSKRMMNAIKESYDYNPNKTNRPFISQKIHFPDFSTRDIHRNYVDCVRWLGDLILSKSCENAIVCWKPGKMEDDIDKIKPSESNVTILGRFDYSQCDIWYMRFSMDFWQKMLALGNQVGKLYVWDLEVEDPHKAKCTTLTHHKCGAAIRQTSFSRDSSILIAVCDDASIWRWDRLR
purified human, His-tagged PRC2 complex, sequence (Q15022 whole entry partner): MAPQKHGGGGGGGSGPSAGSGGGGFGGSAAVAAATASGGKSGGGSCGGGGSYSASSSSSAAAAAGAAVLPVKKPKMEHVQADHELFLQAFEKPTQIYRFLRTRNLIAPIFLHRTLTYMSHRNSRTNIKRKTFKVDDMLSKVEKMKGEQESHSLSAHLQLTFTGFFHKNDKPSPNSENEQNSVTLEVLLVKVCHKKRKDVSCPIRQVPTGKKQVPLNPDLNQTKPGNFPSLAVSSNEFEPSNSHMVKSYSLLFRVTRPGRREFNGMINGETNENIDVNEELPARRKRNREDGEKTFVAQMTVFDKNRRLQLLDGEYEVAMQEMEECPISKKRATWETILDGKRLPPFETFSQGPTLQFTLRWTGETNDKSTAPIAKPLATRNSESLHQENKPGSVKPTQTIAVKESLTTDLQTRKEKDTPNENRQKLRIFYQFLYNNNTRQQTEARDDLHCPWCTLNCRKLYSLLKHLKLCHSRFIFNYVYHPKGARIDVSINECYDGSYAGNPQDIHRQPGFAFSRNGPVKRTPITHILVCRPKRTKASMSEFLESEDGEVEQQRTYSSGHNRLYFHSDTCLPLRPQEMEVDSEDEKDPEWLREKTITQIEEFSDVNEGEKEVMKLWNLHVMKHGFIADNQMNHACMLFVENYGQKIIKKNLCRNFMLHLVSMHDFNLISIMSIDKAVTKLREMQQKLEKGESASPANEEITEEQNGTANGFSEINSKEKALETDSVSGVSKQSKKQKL
purified human, His-tagged PRC2 complex, sequence (Q6ZN18 whole entry partner): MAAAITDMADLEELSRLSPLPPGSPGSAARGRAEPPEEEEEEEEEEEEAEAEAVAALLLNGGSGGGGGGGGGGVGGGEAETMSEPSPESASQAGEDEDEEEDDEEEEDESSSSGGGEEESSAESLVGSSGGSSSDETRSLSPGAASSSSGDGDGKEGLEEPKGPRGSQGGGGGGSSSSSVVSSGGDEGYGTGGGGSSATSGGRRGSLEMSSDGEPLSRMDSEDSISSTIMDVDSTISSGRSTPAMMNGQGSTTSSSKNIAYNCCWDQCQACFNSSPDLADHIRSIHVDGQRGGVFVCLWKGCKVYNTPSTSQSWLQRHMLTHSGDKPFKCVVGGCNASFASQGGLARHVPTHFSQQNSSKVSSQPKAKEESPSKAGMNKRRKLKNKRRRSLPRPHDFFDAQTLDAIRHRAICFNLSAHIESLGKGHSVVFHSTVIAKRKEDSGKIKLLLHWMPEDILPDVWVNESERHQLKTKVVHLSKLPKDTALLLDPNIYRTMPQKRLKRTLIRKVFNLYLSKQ
purified human, His-tagged PRC2 complex, sequence (Q09028 whole entry partner): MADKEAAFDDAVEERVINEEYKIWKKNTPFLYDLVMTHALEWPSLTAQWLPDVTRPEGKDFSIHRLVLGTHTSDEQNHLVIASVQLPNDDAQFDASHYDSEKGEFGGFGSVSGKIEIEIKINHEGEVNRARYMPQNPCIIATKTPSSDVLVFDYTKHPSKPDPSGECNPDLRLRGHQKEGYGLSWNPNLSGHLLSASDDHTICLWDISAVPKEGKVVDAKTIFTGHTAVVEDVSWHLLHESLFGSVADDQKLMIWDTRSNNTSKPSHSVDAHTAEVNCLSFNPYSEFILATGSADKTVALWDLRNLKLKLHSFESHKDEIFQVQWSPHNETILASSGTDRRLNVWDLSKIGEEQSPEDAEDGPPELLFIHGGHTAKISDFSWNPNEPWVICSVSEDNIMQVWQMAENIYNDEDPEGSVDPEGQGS

| Compound | IC50 [1] [nM] | IC50 ([2]; Homo sapiens) [nM] | IC50 (Karpas 422 cells; Homo sapiens) [nM] | IC50 [2] [nM] | IC50 (Karpas 422 cells) [nM] |
| --- | --- | --- | --- | --- | --- |
| N#Cc1cn2c(NCc3c(F)ccc4c3CCO4)ncc(-c3cccc(C(=O)O)c3)c2n1 [Example 174, 3-(2-cyano-5-(((5-fluoro-2,3-dihydrobenzofuran-4-yl)methyl)amino)imidazo[1,2-c]pyrimidin-8-yl)benzoic acid] | < 100 | > 500 | > 500 | – | – |
| N#Cc1cn2c(NCc3c(F)ccc4c3CCO4)ncc(-c3cnn(CC4CCOC4)c3)c2n1 (stereo not drawn) [compound 154] | 100 to 500 | 100 to 500 | 250 to 500 | – | – |
| [2H]C1Oc2ccc(F)c(C([2H])([2H])Nc3ncc(-c4ccc(CN(C)C)cc4C)c4nc(C#N)cn34)c2C1[2H] (stereo not drawn) [Example 223, 8-(4-((dimethylamino)methyl)-2-methylphenyl)-5-(((5-fluoro-2,3-dihydrobenzofuran-4-yl-2,3-d2)methyl-d2)amino)imidazo[1,2-c]pyrimidine-2-carbonitrile] | < 100 | 100 to 500 | ≤ 250 | – | – |
| 5-(2-cyano-5-(((5-fluoro-2,3-dihydrobenzofuran-4-yl)methyl)amino)imidazo[1,2-c]pyrimidin-8-yl)-1-methyl-1H-pyrazole-3-carboxylic acid [Example 157] | < 100 | – | – | ≤ 100 | ≤ 250 |
| N#Cc1cn2c(NCc3c(F)ccc4c3CCO4)ncc(-c3ccnn3C3CC3)c2n1 [Example 193, 8-(1-cyclopropyl-1H-pyrazol-5-yl)-5-(((5-fluoro-2,3-dihydrobenzofuran-4-yl)methyl)amino)imidazo[1,2-c]pyrimidine-2-carbonitrile] | < 100 | 100 to 500 | ≤ 250 | – | – |
| Cc1ncc(-c2cnc(NCc3c(F)ccc4c3CCO4)n3cc(C#N)nc23)cn1 [Example 69, 5-(((5-fluoro-2,3-dihydrobenzofuran-4-yl)methyl)amino)-8-(2-methylpyrimidin-5-yl)imidazo[1,2-c]pyrimidine-2-carbonitrile] | < 100 | 100 to 500 | ≤ 250 | – | – |
| N#Cc1cn2c(NCc3c(F)ccc4c3CCO4)ncc(-c3ccc(S(=O)(=O)C(F)(F)F)cc3)c2n1 [Example 82, 5-(((5-fluoro-2,3-dihydrobenzofuran-4-yl)methyl)amino)-8-(4-((trifluoromethyl)sulfonyl)phenyl)imidazo[1,2-c]pyrimidine-2-carbonitrile] | 100 to 500 | > 500 | 250 to 500 | – | – |
| CN(C)CCc1ccc(-c2cnc(NCc3c(F)ccc4c3CCO4)n3cc(C#N)nc23)cc1 [Example 163, 8-(4-(2-(dimethylamino)ethyl)phenyl)-5-(((5-fluoro-2,3-dihydrobenzofuran-4-yl)methyl)amino)imidazo[1,2-c]pyrimidine-2-carbonitrile] | < 100 | 100 to 500 | ≤ 250 | – | – |
| CNCc1ccc(-c2cnc(NCc3c(F)ccc4c3CCO4)n3cc(C#N)nc23)cc1 [Example 185, 5-(((5-fluoro-2,3-dihydrobenzofuran-4-yl)methyl)amino)-8-(4-((methylamino)methyl)phenyl)imidazo[1,2-c]pyrimidine-2-carbonitrile] | < 100 | ≤ 100 | ≤ 250 | – | – |
